Patent publication US20230226061A1, “COMBINATION CANCER THERAPY WITH DYRK1 INHIBITORS AND INHIBITORS OF THE RAS-RAF-MEK-ERK (MAPK) PATHWAY” (Felicitex Therapuetics, Inc., priority 2022, published 2023)
Where two headings read alike, the source gives them in different places. Each block holds one molecule with its values, some of them ahead of it.

Key:
[1] = system: NSCLC H2122 cells (KRAS-G12C); test: Cell viability assay in 2D cell culture (CellTiter-Glo), H2122
[2] = system: H2122 NSCLC cells (KRAS G12C); test: FACS analysis of cell cycle distribution (acridine orange), H2122; type: cell-based
[3] = system: NSCLC H23 cells (KRAS-G12C); test: Cell viability assay in 2D cell culture (CellTiter-Glo), H23; settings: for EC50: Homo sapiens, NCI-H23, 96 h
[4] = system: NSCLC A549 cells (KRAS-G12S); test: Cell viability assay in 2D cell culture (CellTiter-Glo), A549; settings: for EC50: A549, 96 h
[5] = system: colon cancer SW620 cells (G12V); test: FACS analysis of cell cycle distribution (acridine orange), SW620; type: cell-based; settings: SW620, 5 μM Compound I-7 and 20 nM trametinib, 24 hours
Method: SW620 cells were cultured, treated, and analyzed as described in Example 1. The results when different concentrations of trametinib, Compound I-7, or both trametinib and Compound I-7 are present are shown in FIG. 10.

[6] = system: DYRK1B, MAPK, p27 in SW620 cells; test: Western blot analysis of protein expression in SW620 cells; type: cell-based; settings: SW620, 20 nM trametinib and 5 μM compound I-7, vs trametinib alone
Method: For Western Blot analysis cells were seeded into 6-well plates at 5×10^5-9×10^5 cells/well (depending on the cell size and rate of proliferation), allowed to attach for 24 hours, then treated with compounds for 24 hours, and harvested. Immunoblotting was performed using conventional techniques, as described in Cell Signaling Technologies Western Blotting protocol (www.cellsignal.com).
Antibodies used for blotting were from Cell Signaling Technology (CST): DYRK1B (D40D1) Rabbit mAb #5672; β-Actin (13E5) Rabbit mAb #4970; Anti-rabbit IgG, HIRP-linked Antibody #7074. The Primary Antibody Dilution Buffer 1×TBST with 5% BSA (CST #9998) was used. For detection, SignalFire™ ECL Reagent (CST #6883) was used.
The expression levels of DYRK1B, ph-t202 MAPK, total MAPK, ph-S10 p27, total p27 and β-actin in SW620 cells following the 24 hours treatment with trametinib or combination of trametinib and compound I-7 as observed by Western blot analysis are shown in FIG. 13. The expression of DYRK1B protein was compared to that in untreated cells incubated in regular growth medium containing FBS (FBS+) or serum free medium (FBS−), single treatment with trametinib to the treatment with combination of trametinib and compound I-7.

[7] = system: NSCLC H358 cells (KRAS-G12C); test: Cell viability assay in 2D cell culture (CellTiter-Glo), H358
[8] = system: NSCLC H1975 cells (wild-type KRAS); test: Cell viability assay in 2D cell culture (CellTiter-Glo), H1975; type: cell-based; settings: for EC50: Homo sapiens, NCI-H1975, 96 h, H1975, 96 h
[9] = system: ovarian cancer OVCAR cells (wild KRAS); test: Cell viability assay in 2D cell culture (CellTiter-Glo), OVCAR; type: cell-based; settings: for EC50: 96 h
[10] = system: quiescent and proliferating pancreatic cancer cells; settings: reported by Ewton et al. 2011; cited from earlier work
[11] = system: 3D spheroids of NSCLC H23 cells (KRAS-G12C); test: Cell viability assay in 3D cell culture (spheroids), H23; type: cell-based; settings: Homo sapiens, NCI-H23, H23 3D spheroids, read-out: EC50 for trametinib
Method: (§1) For the treatment, 50 μL of media was removed from each well and replaced with fresh media with compounds. […] If the treatment time exceeded 4 days, 70 μL of media in each well was replaced with fresh media containing the test compound every fourth day. Each treatment was performed in duplicate. […] Prior to analysis, the spheroids were photographed at 50× magnification.
as §1, with “magnification” for “magnification.”

[12] = H2122, 5 μM Compound I-7 and 100 nM AMG-510, FBS+
[13] = H2122, 5 μM Compound I-7 and 100 nM MRTX 849, 48 hours

Compound: CCOC(=N)c1nc2ccc3ncnc(Nc4cc(F)c(F)cc4Cl)c3c2s1 [Compound I-7]
effect of combination on cytotoxicity ([1]; H2122, combined with AMG-510): synergistic
effect of combination on cytotoxicity ([1]; H2122, combined with MRTX-849): synergistic
apoptotic cells (sub-G0 fraction) [2, 12]: large increase in apoptotic cells
proportion of quiescent cells [2, 12]: no such increase in proportion of quiescent cells was observed
apoptotic cells (sub-G0 population) [2, 13]: significant increases in apoptotic cells
fraction of cells in G0 [2, 13]: reduced the fraction of cells in G0
effect of combination on cytotoxicity ([3]; H23, combined with trametinib): synergistic
effect of combination on cytotoxicity of selumetinib ([4]; A549, combined with selumetinib): significant increase in cytotoxicity
effect of combination on cytotoxicity ([4]; A549, combined with trametinib): synergistic
apoptotic cells (sub-G0 population) [5]: significant increases in apoptotic cells
fraction of cells in G0 ([5]; vs trametinib alone): reduced the fraction of cells in G0
phosphorylation of p27 (Western blot) [6]: decrease of the phosphorylation of p27
total levels of p27 (Western blot) [6]: decrease

Compound: c1cncc(-c2ccnc3ccc(-c4c[nH]c5ncccc45)cc23)c1 [Compound II-1]
effect of combination on cytotoxicity ([7]; H358, combined with AMG-510): synergistic
effect of combination on cytotoxicity ([7]; H358, combined with MRTX-849): synergistic
effect of combination on cytotoxicity ([8]; H1975, combined with selumetinib): synergistic effect
effect of combination on cytotoxicity ([9]; combined with selumetinib): synergistic effect

Compound: COc1ncc2cc(C(=O)Nc3cc(C(=O)NCc4cccc(Cl)c4)ccc3Cl)c(=O)[nH]c2n1 [TC-S 7004]
effectiveness against quiescent and proliferating cancer cells in vitro [10]: effective against both quiescent and proliferating cancer cells

EC50 ([8]; Compound II-1 not present, highest selumetinib concentration 20 μM): 59000 nM
EC50 ([8]; Compound II-1 present at 1 μM, read-out: EC50 for selumetinib): 130 nM
EC50 ([4]; read-out: EC50 for selumetinib, Compound I-7 not present): 2350 nM
EC50 ([4]; read-out: EC50 for selumetinib, Compound I-7 present at 3 μM): 920 nM
EC50 ([4]; read-out: EC50 for selumetinib, Compound I-7 present at 6 μM): 10 nM
EC50 ([9]; Compound I-7 not present, highest selumetinib concentration 50 μM): 238000 nM
EC50 ([9]; Compound I-7 present at 1 μM, read-out: EC50 for selumetinib): 173000 nM
EC50 ([9]; Compound I-7 present, read-out: EC50 for selumetinib): < 100 nM
Compound: Cn1cnc2c(F)c(Nc3ccc(Br)cc3Cl)c(C(=O)NOCCO)cc21 [selumetinib]

EC50 ([4]; read-out: EC50 for trametinib, Compound I-7 not present): 16.2 nM
EC50 ([4]; read-out: EC50 for trametinib, Compound I-7 present at 2.2 μM): 16 nM
EC50 ([4]; read-out: EC50 for trametinib, Compound I-7 present at 6.73 μM): 3.2 nM
Compound: CC(=O)Nc1cccc(-n2c(=O)n(C3CC3)c(=O)c3c(Nc4ccc(I)cc4F)n(C)c(=O)c(C)c32)c1 [trametinib]
EC50 ([3]; read-out: EC50 for trametinib, H23 2D, 96 h, Compound I-7 not present): 19.2 nM
EC50 ([3]; read-out: EC50 for trametinib, H23 2D, 96 h, Compound I-7 present at 0.12 μM): 15.5 nM
EC50 ([3]; read-out: EC50 for trametinib, H23 2D, 96 h, Compound I-7 present at 3.3 μM): 11.8 nM
EC50 ([11]; Compound I-7 not present): 1.7 nM
EC50 ([11]; Compound I-7 present at 5 μM): 1.2 nM
EC50 ([11]; Compound I-7 present at 10 μM): < 0.01 nM
